# Source: the METLIN SMRT retention time set (Domingo-Almenara et al. 2019)
# Test: gradient 5% acetonitrile 3 min, to 50% in 2 min, to 85% in 15 min, held 3 min, 100 µL/min
# Settings: column: Zorbax Extend-C18 2.1 x 50 mm; eluents: water / acetonitrile, 0.1% formic acid
# Method in brief: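 The mobile phases were water and acetonitrile, each with 0.1% formic acid, pumped at 100 μL/min through a Zorbax Extend-C18 column (2.1 × 50 mm, 1.8 μm). Pure standards were injected as mixtures of ~100 molecules and detected by a quadrupole time-of-flight mass spectrometer in positive and negative ionization mode. Retention time came from computationally picked adduct peaks, each inspected by hand.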
row,Compound,RP-LC retention time [s]
1,Cc1ccc(Cl)cc1NC(=O)C1CC(=O)N(c2ccc3c(c2)CCN3C(=O)C2CC2)C1 (stereo not drawn),821
2,CNC(=O)[C@@H]1C[C@H](Oc2ccccc2)CN1C(=O)c1n[nH]c2ccccc12,706
3,O=C(c1ccc(F)cc1Cl)N1CCN(c2cc(-c3ccc(F)cc3)[nH]n2)CC1,837
4,COc1ccc(NC(=O)CCNc2cnc3cnccn23)cc1F,589
5,Cc1nnc2ccc(S(=O)(=O)N(Cc3ccc(F)cc3)c3ccc(F)cc3)cn12,892
6,O=C(CSc1ncn[nH]1)Nc1ccc2c(c1)OCCO2,591
7,CCn1c(=O)c(N2CCC(C(=O)NCCN3CCCCCC3)CC2)nc2cccnc21,646
8,CC(=O)Nc1ccc(CCc2nc3ccc(C(=O)NC(C)Cc4ccco4)cc3[nH]2)cc1 (stereo not drawn),626
9,Cc1cc(C)cc(S(=O)(=O)N2CCc3c(c(-c4nnc(-c5ccc(F)cc5)o4)nn3C)C2)c1,812
10,N#CC1(C(=O)NCCOc2ccc(F)cc2)CC1,728
11,CSc1cccc(NC(=O)N2CCC(n3c(C)nc4cccnc43)CC2)c1,647
12,Cc1onc(-c2ccccc2Cl)c1C(=O)Nc1cc(C(=O)N2CCCC2)cn(C)c1=O,699
13,O=C(Cc1cn(Cc2ccc(F)cc2)c2ccccc12)N1CCN(C(=O)c2ccco2)CC1,803
14,COc1ccc(NC(=O)Cn2c(=O)n(-c3ccc(C)cc3)c(=O)c3c2cc(C)n3C)c(OC)c1,872
15,Cc1ccc(CNC(=O)c2cc3c(s2)CCN(C(=O)c2ccccc2)C3)o1,881
16,Cc1ccc(Cl)cc1NC(=O)N1CCC(c2nc(C(=O)N3CCCC3)c(C)o2)CC1,858
17,CC(C)NC(=O)Nc1cccc(Cl)c1,854
18,Cc1ccc(CNC(=O)c2cc3n(n2)CC(C)(C(=O)NCc2ccc(F)cc2)N(C)C3=O)cc1 (stereo not drawn),741
19,COC(=O)c1cccc(C(=O)N2CCc3ccccc32)n1,797
20,Cc1cc(-c2c(C)sc(C)c2S(=O)(=O)N2CC=C(c3ccccc3)CC2)n[nH]1,1040
21,COc1ccccc1NC(=O)c1cnc(-c2ccccc2)nc1-c1ccncc1,887
22,Cc1ccccc1NC(=O)NC1CCN(c2ccccc2)C1=O (stereo not drawn),781

row,Compound,RP-LC retention time [s]
1,Cc1ccc(-n2cc3c(N4CCCC(C(=O)NCc5cccc(C(F)(F)F)c5)C4)ncnc3n2)cc1 (stereo not drawn),772
2,O=C(c1cc2c(s1)-c1ccsc1CC2)N1CCN(c2ccccn2)CC1,698
3,COCCN(Cc1ccc(Cl)cc1)Cc1cc(=O)c2cccc(F)c2[nH]1,983
4,O=C(OCC12CC3CC(CC(C3)C1)C2)c1ccc(NCc2cc(O)ccc2O)cc1,1080
5,CC(C)Cc1ccc([C@@H](C)C(=O)NS(C)(=O)=O)cc1,1070
6,COC(=O)c1sccc1NC(=O)Nc1cccn2c(C3CCC3)nnc12,884
7,CCn1c(=O)cc(SCC(=O)N2CCN(c3ccccn3)CC2)c2ccccc21,607
8,Fc1ccc(-c2nnc(Cc3nc(-c4ccc(F)c(F)c4)no3)o2)cc1,1030
9,O=C(Nc1ccc(F)cc1F)N1CCC(n2cnc3cc(Cl)ccc3c2=O)CC1,806
10,O=C(CN1CCN(S(=O)(=O)c2ccccc2)CC1)Nc1ccc(Br)cc1,722
11,CCc1nc2cccnc2n1C1CCN(C(=O)CCCc2ccccc2)C1 (stereo not drawn),647
12,COc1ccc(CN2C[C@@H]3C(=O)N(C)C(=O)[C@@H]3C2)c(OC)c1,587
13,CCc1nc2nccc(-c3cccc(OC)c3)n2n1,762
14,CCN(CC)CCCNC(=O)C(C)n1nc(C)c2c(C)n(-c3ccccc3)nc2c1=O (stereo not drawn),621
15,O=C(Cc1csc(SCC(=O)c2ccccc2)n1)Nc1cccc2nsnc12,981
16,CC(C)n1c(=O)sc2cc(S(=O)(=O)N3CCC(C(=O)N4CCc5ccccc5C4)CC3)ccc21,1000
17,COc1ccc(CNC(=O)c2csc(-c3cn(C)c4ncccc34)n2)cc1,867
18,CCOc1ccc(Br)cc1S(=O)(=O)Nc1ccc(-c2cn3ccc(C)nc3n2)cc1,724
19,Cn1c(=O)c2c(C(=O)NCC3CCN(Cc4cccc(Cl)c4)CC3)cc(=O)n(C)c2n(C)c1=O,632
20,COC(=O)c1c(C)[nH]c(C(=O)N2CCC(CC(=O)NCCCN3CCOCC3)CC2)c1C,575
21,CC(C)C(=O)NCc1csc(C2CCCN(C(=O)c3cc(F)cc(F)c3)C2)n1 (stereo not drawn),757
22,COCC(=O)Nc1ccc2c(c1)N(C(=O)c1cccs1)CCC2,758

row,Compound,RP-LC retention time [s]
1,COc1ccc(-c2cc(=O)n3c4ccccc4n(CC(=O)Nc4ccc5c(c4)OCO5)c3n2)cc1,720
2,Cc1nc(-c2ccccc2OC2CN(S(=O)(=O)Cc3ccccc3)C2)no1,916
3,O=C(CCN1CCN(CCO)CC1)N1c2ccccc2Sc2ccc(C(F)(F)F)cc21,673
4,COc1cccc(-c2ccc3nc(N4CCC(C(=O)NC(C)C)CC4)sc3n2)c1,895
5,CCn1ccc2sc(C)c(C(=O)NC(C)c3ccc(C)cc3C)c2c1=O (stereo not drawn),975
6,O=C(c1ccc(-n2cnnn2)cc1)N1CCCc2ccccc21,734
7,Cc1ccnc(OCC(=O)Nc2ccc(OC(F)(F)F)cc2)n1,771
8,CCC(=O)Nc1ccc2c(c1)CN(C(=O)c1ccccc1)C(C(=O)N1CCCC1)C2 (stereo not drawn),667
9,Cc1ccc(CS(=O)(=O)N2CCC(c3cc(N)on3)CC2)cc1C,826
10,Cc1cc(C)c2c(N3CCOCC3)nc(C(=O)NCC3CCCCC3)nc2n1,678
11,O=C(c1nc(-c2ccc(Cl)cc2)n2c1CCCCC2)N1CCN(c2ncccn2)CC1,767
12,O=C(Nc1cccc(Cl)c1)C1CCc2nc(N3CCOCC3)ncc2C1 (stereo not drawn),838
13,Cc1cc(C)n(-c2nc(CC(=O)Nc3ccc(N(C)C)cc3)cs2)n1,650
14,CCc1cccc(NC(=O)Cn2ccc3ccc(-c4nnc(C)o4)cc32)c1,798
15,O=C(NCCCc1ccccc1)C1(CCO)CCN(c2ncccn2)C1 (stereo not drawn),651
16,CCc1nc(-c2ccc(S(=O)(=O)N3CCC(C(=O)NCc4ccc5c(c4)OCO5)CC3)cc2)no1,929
17,O=C(c1ccccn1)N1CCCC(OCc2nc(C3CC3)no2)C1 (stereo not drawn),619
18,COc1ccccc1N1CCN(c2nc3ccccc3cc2-c2noc(C)n2)CC1,671
19,COc1ccccc1-c1nnc(-c2ccc(OC)c(S(=O)(=O)N3CCCC3)c2)o1,830
20,COc1cc(OC)cc(-c2nc(-c3ccc4c(c3)ncn4CCN3CCCC3)no2)c1,684
21,Cc1noc(C2CCCCN2C(=O)c2ccoc2)n1 (stereo not drawn),670
22,CCN1CCN(CC(=O)NCc2ccccc2)C(=O)C1=O,570

row,Compound,RP-LC retention time [s]
1,Cc1ccc(-c2noc(Cn3cnc4c(cnn4-c4ccccc4)c3=O)n2)cc1,1090
2,CCOC(=O)C(=O)NCc1ccccc1Cl,735
3,CCOC(=O)C1CCN(c2ncnc3c2cnn3-c2ccccc2)CC1,944
4,Cc1ccn2cc(C(=O)NCc3ccc(Cl)cc3)nc2c1,704
5,COc1ccc(Br)cc1S(=O)(=O)NC(=O)/C=C/c1ccccc1Cc1ccc2ccccc2c1,1280
6,CCCNC(=O)C1CCCN(c2ccc(SCC(=O)Nc3cccc(C(F)(F)F)c3)nn2)C1 (stereo not drawn),744
7,COC(=O)c1cc(S(=O)(=O)N2CCCC2C(=O)Nc2ccc(F)cc2F)cn1C (stereo not drawn),875
8,Cc1ccccc1NC(=O)N1C[C@@H](F)C[C@H]1C(=O)N1CCc2ccccc2C1,780
9,CCCCN(C)C(=O)Cn1c(C(C)NC(=O)c2ccco2)nc2ccccc21 (stereo not drawn),655
10,CC1CC(C)CN(S(=O)(=O)c2cccc(-c3cn4cc(Cl)ccc4n3)c2)C1 (stereo not drawn),1090
11,O=C(NCCn1nc(-c2cccs2)ccc1=O)c1ccc2ncsc2c1,629
12,CCCn1cc(S(=O)(=O)Nc2ccccc2OC)c2cccnc21,904
13,CCc1cccc(C)c1NC(=O)Cn1c(N(C)Cc2ccccc2)nc(C)cc1=O,857
14,CC(C)CCNC(=O)CSc1nc(N2CCc3ccccc3C2)nc2ccccc12,917
15,O=C(Nc1ccc2c(c1)C(=O)N1CCCCC1CCO2)c1ccc2nsnc2c1 (stereo not drawn),800
16,C=Cc1ccc(CN2CCCN(c3ncccc3-c3nc(CCC)no3)CC2)cc1,766
17,COCCC(=O)N1CCOc2ccc(N(C)C)cc2C1,612
18,C/C=C1/C(=O)C[C@H]2[C@@H]3CCC4=CC(=O)CC[C@]4(C)[C@H]3CC[C@]12C,1100
19,CC1CCN(S(=O)(=O)c2cc(C(=O)N3CCN(c4ccc(F)cc4)CC3)n(C)c2)CC1,1010
20,O=C(C1CCN(c2nc3ccc(-c4ccccc4)nc3s2)CC1)N1CCCCC1,1040
21,CCOCCCNC(=O)N1[C@H]2CC[C@@H]1c1cnc(-c3ccc(F)cc3)nc1C2,800
22,O=C(NCCCN1CCCC1)C1CN(C(=O)c2ccccc2)CC12CCCCC2 (stereo not drawn),611
